Patent US10626103B2, “Inhibitor of lysine specific demethylase-1” (CELGENE QUANTICEL RESEARCH, INC., priority 2014, dated 2020)

How the values were obtained:
[1] = molecular target: full-length human LSD1 (Homo sapiens (Human), UniProt O60341); experiment: In vitro enzyme inhibition assay LSD-1 (TR-FRET); assay type: biochemical; details: H3K4me1-biotin peptide
Description: This assay determines the ability of a test compound to inhibit LSD1 demethylase activity.
The enzymatic assay of LSD1 activity is based on Time Resolved-Fluorescence Resonance Energy Transfer (TR-FRET) detection.
Plates were read by EnVision Multilabel Reader in TR-FRET mode (excitation at 320 nm, emission at 615 nm and 665 nm) after 1 hour incubation at room temperature.
The ability of the compounds disclosed herein to inhibit LSD1 activity was quantified and the respective IC50 value was determined.

[2] = test system: CD11b expression in THP-1 (AML) cells; experiment: LSD1 CD11b cellular assay (flow cytometry); assay type: cell-based; details: Homo sapiens, 96 h, THP-1 cells, 4 days
Description: To analyze LSD1 inhibitor efficacy in cells, a CDL11b flow cytometry assay was performed. LSD1 inhibition induces CD11b expression in THP-1 (AML) cells which can be measured by flow cytometry. […] LSD 1 test compounds were serially diluted in DMSO. The dilutions were added to each well accordingly to a final concentration of 0.2% DMSO. The cells were incubated at 37 degrees Celsius in 5% CO2 for 4 days. 250 μL of each well was transferred to a well in a 96 well round bottom plate. The plate was centrifuged at 1200 rpm at 4 degrees Celsius in a Beckman Coulter Alegra 6KR centrifuge for 5 minutes. The media was removed leaving the cells at the bottom of the wells. The cells were washed in 100 μL cold HBSS (Hank's Balanced Salt Solution) plus 2% BSA (Bovine Serum Albumin) solution and centrifuged at 1200 rpm at 4 degrees Celsius for 5 minutes. The wash was removed. […] The cells were centrifuged and washed two times in 100 μl HBSS plus 2% BSA. After the final spin the cells were resuspended in 100 μL HBSS plus 2% BSA containing 1 ug/mL DAPI (4′,6-diamidino-2-phenylindole). The cells were then analyzed by flow cytometry in a BD FACSAria machine. Cells were analyzed for CD11b expression. The percent of CD11b expressing cells for each inhibitor concentration was used to determine an IC50 curve for each compound analyzed.

Row | Compound | IC50 [1] [nM] | IC50 [2] [nM]
1 | Cc1c(C(=O)N2CCC3(CNC3)C2)nc(-c2ccc(C#N)c(F)c2)n1-c1ccc2nn(C)cc2c1 [Example 91, 4-[4-(2,6-Diazaspiro[3.4]octane-6-carbonyl)-5-methyl-1-(2-methylindazol-5-yl)imidazol-2-yl]-2-fluorobenzonitrile] | < 100 | < 100
2 | CN[C@H]1CCN(C(=O)c2nc(-c3ccc(C#N)c(F)c3)n(-c3ccc(OC)c(F)c3)c2F)C1 [Example 68, 2-Fluoro-4-[5-fluoro-1-(3-fluoro-4-methoxyphenyl)-4-[(3S)-3-(methylamino)pyrrolidine-1-carbonyl]imidazol-2-yl]benzonitrile] | < 100 | < 100
3 | Cc1c(C(=O)N2CCC3(CCN3)C2)nc(-c2ccc(C#N)c(F)c2)n1-c1ccc2c(cnn2C)c1 (centres unmarked) [Example 92, 4-[4-(1,7-Diazaspiro[3.4]octane-7-carbonyl)-5-methyl-1-(1-methylindazol-5-yl)imidazol-2-yl]-2-fluorobenzonitrile] | < 100 | 100 to 1000
4 | Cc1c(C(=O)N2CC[C@H](N)C2)nc(-c2ccc(C#N)c(F)c2)n1-c1ccc2c(cnn2C)c1 [Example 24, 4-[4-[(3S)-3-aminopyrrolidine-1-carbonyl]-5-methyl-1-(1-methylindazol-5-yl)imidazol-2-yl]-2-fluorobenzonitrile] | < 100 | < 100
5 | Cn1cc2cc(-c3c(-c4ccc(C#N)c(F)c4)cc(C(=O)N4CCC[C@@H](N)C4)n3C[C@@H](O)CO)ccc2n1 [Example 38, 4-(5-((R)-3-aminopiperidine-1-carbonyl)-1-((R)-2,3-dihydroxypropyl)-2-(2-methyl-2H-indazol-5-yl)-1H-pyrrol-3-yl)-2-fluorobenzonitrile] | < 100 | < 100
6 | CN(CCN)C(=O)c1cc(-c2ccc(C#N)c(F)c2)c(-c2ccc3nn(C)cc3c2)n1C [Example 31, N-(2-aminoethyl)[4-(4-cyano-3-fluorophenyl)-1-methyl-5-(2-methyl(2H-indazol-5-yl))pyrrol-2-yl]-N-methylcarboxamide] | < 100 | < 100
7 | COc1ccc(-c2c(-c3ccc(C#N)cc3)cc(C(=O)N3CCC[C@@H](N)C3)n2CCO)cc1 [Example 7, 4-[5-(3-(R)-amino-piperidine-1-carbonyl)-1-(2-hydroxy-ethyl)-2-(4-methoxy-phenyl)-1H-pyrrol-3-yl]-benzonitrile] | < 100 | < 100
8 | Cn1cc2cc(-c3c(-c4ccc(C#N)c(F)c4)cc(C(=O)N4CCC[C@@H](N)C4)n3C[C@H](O)CO)ccc2n1 [Example 39, 4-(5-((R)-3-aminopiperidine-1-carbonyl)-1-((S)-2,3-dihydroxypropyl)-2-(2-methyl-2H-indazol-5-yl)-1H-pyrrol-3-yl)-2-fluorobenzonitrile] | < 100 | < 100
9 | COc1ccc(-c2c(-c3ccc(C#N)c(F)c3)cc(C(=O)N3CCC[C@@H](N)C3)n2C)cc1 [Example 2, 4-[5-(3-(R)-amino-piperidine-1-carbonyl)-2-(4-methoxy-phenyl)-1-methyl-1H-pyrrol-3-yl]-2-fluoro-benzonitrile] | < 100 | < 100
10 | COc1ccc(-n2c(-c3ccc(C#N)c(F)c3)nc(C(=O)N3CC[C@H](N)C3)c2F)cc1F [Example 89, 4-[4-[(3S)-3-Aminopyrrolidine-1-carbonyl]-5-fluoro-1-(3-fluoro-4-methoxyphenyl)imidazol-2-yl]-2-fluorobenzonitrile] | < 100 | 100 to 1000
11 | CN[C@H]1CCN(C(=O)c2nc(-c3ccc(C#N)c(F)c3)n(-c3ccc(OC)cc3)c2F)C1 [Example 73, 2-Fluoro-4-[5-fluoro-1-(4-methoxyphenyl)-4-[(3S)-3-(methylamino)pyrrolidine-1-carbonyl]imidazol-2-yl]benzonitrile] | < 100 | < 100
12 | COc1ccc(-n2c(-c3ccc(C#N)c(F)c3)nc(C(=O)N3CCC[C@@H](N)C3)c2Cl)cc1F [Example 66, 4-[4-[(3R)-3-Aminopiperidine-1-carbonyl]-5-chloro-1-(3-fluoro-4-methoxyphenyl)imidazol-2-yl]-2-fluorobenzonitrile] | < 100 | < 100
13 | Cn1cc2cc(-c3c(-c4ccc(C#N)c(F)c4)cc(C(=O)N4CCC[C@@H](N)C4)n3CCCO)ccc2n1 [Example 34, (R)-4-(5-(3-aminopiperidine-1-carbonyl)-1-(3-hydroxypropyl)-2-(2-methyl-2H-indazol-5-yl)-1H-pyrrol-3-yl)-2-fluorobenzonitrile] | < 100 | < 100
14 | CN[C@H]1CCN(C(=O)c2cn(-c3ccc(OC)c(F)c3)c(-c3ccc(C#N)c(F)c3)n2)C1 [Example 65, 2-Fluoro-4-[1-(3-fluoro-4-methoxyphenyl)-4-[(3S)-3-(methylamino)pyrrolidine-1-carbonyl]imidazol-2-yl]benzonitrile] | < 100 | < 100

Further lines, results first:

Row | IC50 [1] [nM] | IC50 [2] [nM] | Compound
15 | < 100 | < 100 | COc1ccc(-n2c(-c3ccc(C#N)c(F)c3)nc(C(=O)N[C@@H]3CCCNC3)c2Cl)cc1F [Example 84, 5-Chloro-2-(4-cyano-3-fluorophenyl)-1-(3-fluoro-4-methoxyphenyl)-N-[(3R)-piperidin-3-yl]imidazole-4-carboxamide]
16 | < 100 | < 100 | Cc1c(C(=O)NC2CCNC2)nc(-c2ccc(C#N)c(F)c2)n1-c1ccc2nn(C)cc2c1 (centres unmarked) [Example 46, 2-(4-Cyano-3-fluorophenyl)-5-methyl-1-(2-methylindazol-5-yl)-N-pyrrolidin-3-ylimidazole-4-carboxamide]
17 | < 100 | < 100 | CN(C)[C@H]1CCN(C(=O)c2cn(-c3ccc4nn(C)c(Cl)c4c3)c(-c3ccc(C#N)c(F)c3)n2)C1 [Example 57, 4-[1-(3-Chloro-2-methylindazol-5-yl)-4-[(3S)-3-(dimethylamino)pyrrolidine-1-carbonyl]imidazol-2-yl]-2-fluorobenzonitrile]
18 | < 100 | < 100 | Cn1nc2ccc(-n3cc(C(=O)N[C@@H]4CCCNC4)nc3-c3ccc(C#N)c(F)c3)cc2c1Cl [Example 114, 1-(3-Chloro-2-methylindazol-5-yl)-2-(4-cyano-3-fluorophenyl)-N-[(3R)-piperidin-3-yl]imidazole-4-carboxamide]
19 | < 100 | < 100 | CN(C)[C@H]1CCN(C(=O)c2nc(-c3ccc(C#N)c(F)c3)n(-c3ccc4nn(C)c(Cl)c4c3)c2Cl)C1 [Example 101, 4-[5-Chloro-1-(3-chloro-2-methylindazol-5-yl)-4-[(3S)-3-(dimethylamino)pyrrolidine-1-carbonyl]imidazol-2-yl]-2-fluorobenzonitrile]
20 | < 100 | < 100 | CN[C@H]1CCCN(C(=O)c2cn(-c3ccc4nn(C)c(Cl)c4c3)c(-c3ccc(C#N)c(F)c3)n2)C1 [Example 116, 4-[1-(3-Chloro-2-methylindazol-5-yl)-4-[(3S)-3-(methylamino)piperidine-1-carbonyl]imidazol-2-yl]-2-fluorobenzonitrile]
21 | < 100 | < 100 | Cn1cc2cc(-n3c(-c4ccc(C#N)c(F)c4)nc(C(=O)N4CCC[C@@H](N)C4)c3Cl)ccc2n1 [Example 75, 4-[4-[(3R)-3-Aminopiperidine-1-carbonyl]-5-chloro-1-(2-methylindazol-5-yl)imidazol-2-yl]-2-fluorobenzonitrile]
22 | < 100 | 100 to 1000 | CN(C)[C@H]1CCN(C(=O)c2cn(-c3ccc4nn(C)cc4c3)c(-c3ccc(C#N)c(F)c3)n2)C1 [Example 99, 4-[4-[(3S)-3-(Dimethylamino)pyrrolidine-1-carbonyl]-1-(2-methylindazol-5-yl)imidazol-2-yl]-2-fluorobenzonitrile]
23 | < 100 | < 100 | CN[C@H]1CCN(C(=O)c2nc(-c3ccc(C#N)c(F)c3)n(-c3ccc4nn(C)c(C)c4c3)c2C)C1 [Example 103, 4-[1-(2,3-Dimethylindazol-5-yl)-5-methyl-4-[(3S)-3-(methylamino)pyrrolidine-1-carbonyl]imidazol-2-yl]-2-fluorobenzonitrile]
24 | < 100 | < 100 | CN[C@H]1CCN(C(=O)c2cn(-c3ccc4nn(C)c(Cl)c4c3)c(-c3ccc(C#N)c(F)c3)n2)C1 [Example 113, 4-[1-(3-Chloro-2-methylindazol-5-yl)-4-[(3S)-3-(methylamino)pyrrolidine-1-carbonyl]imidazol-2-yl]-2-fluorobenzonitrile]
25 | < 100 | < 100 | CN[C@H]1CCCN(C(=O)c2nc(-c3ccc(C#N)c(F)c3)n(-c3ccc4nn(C)cc4c3)c2C)C1 [Example 97, 2-Fluoro-4-[5-methyl-4-[(3S)-3-(methylamino)piperidine-1-carbonyl]-1-(2-methylindazol-5-yl)imidazol-2-yl]benzonitrile]
